Source: US20220089541A1, “Compounds for the Treatment of Kinase-Dependent Disorders” (Exelixis, Inc., priority 2019, published 2022)

These molecules were tested against T1, AXL (Homo sapiens, UniProt P30530) (assay: AXL autophosphorylation ELISA in A-172 cells). Conditions: A-172 glioblastoma cells, Gas6-stimulated, phospho-AXL ELISA, 1 h compound incubation.
T1 construct: host or cells: A-172 glioblastoma cells
T1 sequence (P30530 26-894): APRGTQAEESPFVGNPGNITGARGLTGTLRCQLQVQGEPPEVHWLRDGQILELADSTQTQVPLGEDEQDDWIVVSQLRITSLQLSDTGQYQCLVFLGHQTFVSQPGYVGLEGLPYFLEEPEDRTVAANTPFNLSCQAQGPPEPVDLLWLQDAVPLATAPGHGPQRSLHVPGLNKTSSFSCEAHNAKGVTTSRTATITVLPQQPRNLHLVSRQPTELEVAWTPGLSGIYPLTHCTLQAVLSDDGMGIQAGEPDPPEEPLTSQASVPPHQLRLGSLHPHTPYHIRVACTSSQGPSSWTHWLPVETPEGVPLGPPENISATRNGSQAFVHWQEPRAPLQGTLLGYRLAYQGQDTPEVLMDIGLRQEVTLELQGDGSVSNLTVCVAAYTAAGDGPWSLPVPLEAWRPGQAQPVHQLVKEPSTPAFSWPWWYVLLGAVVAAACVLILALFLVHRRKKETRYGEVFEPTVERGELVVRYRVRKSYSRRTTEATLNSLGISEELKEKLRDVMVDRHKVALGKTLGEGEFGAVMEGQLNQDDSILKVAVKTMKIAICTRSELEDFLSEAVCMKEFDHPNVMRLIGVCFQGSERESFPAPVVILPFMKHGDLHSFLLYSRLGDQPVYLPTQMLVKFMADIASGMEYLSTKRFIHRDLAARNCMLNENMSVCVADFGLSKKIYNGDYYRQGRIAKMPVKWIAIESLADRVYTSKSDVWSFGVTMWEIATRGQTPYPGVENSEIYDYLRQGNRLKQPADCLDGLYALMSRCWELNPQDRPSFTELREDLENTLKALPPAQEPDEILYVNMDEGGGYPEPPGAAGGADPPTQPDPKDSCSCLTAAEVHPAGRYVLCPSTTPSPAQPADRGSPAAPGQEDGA
Format: cell-based
Method: Example A: AXL Autophosphorylation ELISA in A-172 Cells
A-172 glioblastoma cells (ATCC #CRL-1620) were seeded at 2.5×10^5 cells/well onto 24-well plates (Greiner #662165), in DMEM (Thermo Fisher #11995-040) containing 10% FBS (Thermo Fisher #26140-079), 1% MEM NEAA (Thermo Fisher #11140-050), 1% GlutaMax (Thermo Fisher #35050-061), and 1% Penicillin Streptomycin (Thermo Fisher #15140-122). A-172 cells were incubated at 37° C., 5% CO2 for 24 h and then starved for 24 h in serum-free medium. Test compounds were serially diluted to produce an 8-point dose curve in fresh serum-free medium to a final concentration of 0.3% DMSO (vehicle) and added to the cells and incubated for 1 h. Cells were then stimulated with 1 μg/mL recombinant human Gas6 (R&D Systems #885-GSB-500) for 15 min, washed with cold PBS, and immediately lysed with 150 μL of cold IX lysis buffer [20 mM Tris, 137 mM sodium chloride, 2 mM EDTA, 10% glycerol, 1% NP-40 alternative, 1 mM activated sodium orthovanadate, 1 mM PefaBloc SC (Sigma-Aldrich #11429868001), protease/phosphatase inhibitor tablet (Thermo Fisher #A32959)]. Lysates were collected and 100 μL/well added into the human phospho-AXL DuoSet IC ELISA (R&D Systems #DYC2228-2). Assay was performed according to manufacturer's instructions and sample phospho-AXL concentrations were extrapolated using human phospho-AXL control (R&D Systems #841645) as a standard. Positive control wells (100% activity) contained Gas6-stimulated, DMSO-treated cell lysates. Negative control wells (0% activity) contained Gas6-stimulated, reference inhibitor-treated cell lysates. IC50 values were calculated by nonlinear regression analysis using a 4-parameter logistic curve fit in ActivityBase XE (IDBS).

Structure (SMILES) | IC50 [nM]
COc1cc2nccc(Oc3ccc(NC(=O)C4(C(=O)N(C)c5ccc(F)cc5)CC4)cc3)c2cc1OC [Compound 9, 1-N-[4-(6,7-Dimethoxyquinolin-4-yl)oxyphenyl]-1-N′-(4-fluorophenyl)-1-N′-methylcyclopropane-1,1-dicarboxamide] | > 300
COc1cc2nccc(Oc3ccc(NC(=O)C4(C(=O)N(C)c5ccc(F)cc5)CC4)cc3F)c2cc1OC [Compound 10, N-(4-((6,7-Dimethoxyquinolin-4-yl)oxy)-3-fluorophenyl)-N-(4-fluorophenyl)-N-methylcyclopropane-1,1-dicarboxamide] | > 300
CNC(=O)c1cc2c(Oc3ncc(NC(=O)C4(C(=O)N(C)c5ccc(F)cc5)CC4)cc3F)ccnc2cc1OC [Compound 34, 1-N-[5-Fluoro-6-[7-methoxy-6-(methylcarbamoyl)quinolin-4-yl]oxypyridin-3-yl]-1-N′-(4-fluorophenyl)-1-N′-methylcyclopropane-1,1-dicarboxamide] | > 300
COc1cc2nccc(Oc3ncc(NC(=O)C4(C(=O)N(C)c5ccc(F)cc5)CC4)cc3F)c2cc1C(N)=O [Compound 35, 1-N-[6-(6-Carbamoyl-7-methoxyquinolin-4-yl)oxy-5-fluoropyridin-3-yl]-1-N′-(4-fluorophenyl)-1-N′-methylcyclopropane-1,1-dicarboxamide] | > 300
COc1cc2nccc(Oc3ccc(N(C)C(=O)C4(C(=O)Nc5ccc(F)cc5)CC4)cc3F)c2cc1OC [Compound 51, 1-N′-[4-(6,7-Dimethoxyquinolin-4-yl)oxy-3-fluorophenyl]-1-N-(4-fluorophenyl)-1-N′-methylcyclopropane-1,1-dicarboxamide] | > 300
